Results reported in ChEMBL document CHEMBL1201862, “PubChem BioAssay data set” (2004).
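Five concentrations, 48 hours, 96-well plates. GI50 is the concentration that inhibits growth by half.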 The source made the active and inactive calls. Cut-off read from the data, not from the text of the source: active = GI50 up to about 1.1 µM and inactive = higher.

What was measured:
Assay in all cases: NCI tumour cell line growth inhibition, 48 h
MCF7 = system: MCF7
NCI/ADR-RES = system: NCI/ADR-RES
SF-268 = system: SF-268
A498 = system: A498
LOX IMVI = system: LOX IMVI
SK-MEL-28 = system: SK-MEL-28
COLO 205 = system: COLO 205
NCI-H522 = system: NCI-H522
IGROV-1 = system: IGROV-1
UO-31 = system: UO-31
SNB-75 = system: SNB-75
EKVX = system: EKVX
OVCAR-5 = system: OVCAR-5
ACHN = system: ACHN
HCT-116 = system: HCT-116
NCI-H226 = system: NCI-H226
SK-OV-3 = system: SK-OV-3
M14 = system: M14
HCC 2998 = system: HCC 2998
RXF 393 = system: RXF 393

Measured: GI50

CSC1=N/C(=C\c2ccccc2)C(=O)N1CN1CCCCC1
inactive: MCF7 24.6 µM | NCI/ADR-RES 20 µM | SF-268 55.5 µM | A498 77.8 µM | LOX IMVI 38.5 µM | SK-MEL-28 > 100 µM | COLO 205 65.5 µM | NCI-H522 42.3 µM | IGROV-1 38.7 µM | UO-31 39.5 µM | SNB-75 56.1 µM | EKVX 51.1 µM | OVCAR-5 > 100 µM | ACHN 34.9 µM | HCT-116 33.2 µM | NCI-H226 35.7 µM | SK-OV-3 > 100 µM | M14 61.7 µM

Cc1c(-c2cc3n(n2)C(c2cccs2)C(C#N)=C(c2ccccc2)N3)c(=O)n(-c2ccccc2)n1C (stereo not given)
inactive: MCF7 > 86.5 µM | NCI/ADR-RES > 86.3 µM | SF-268 > 100 µM | A498 82.8 µM | LOX IMVI 38.5 µM | SK-MEL-28 > 100 µM | HCC 2998 > 100 µM | COLO 205 > 89.3 µM | NCI-H522 63.2 µM | IGROV-1 87.7 µM | UO-31 77.4 µM | SNB-75 > 55.1 µM | EKVX > 100 µM | OVCAR-5 > 100 µM | HCT-116 > 75.7 µM | RXF 393 37.4 µM | NCI-H226 > 100 µM | SK-OV-3 > 100 µM

Cc1ccc2nc(C(C)C)c(=O)[nH]c2c1
inactive: MCF7 > 100 µM | NCI/ADR-RES 54.7 µM | SF-268 > 100 µM | A498 > 100 µM | SK-MEL-28 > 100 µM | HCC 2998 > 100 µM | COLO 205 > 100 µM | NCI-H522 82.8 µM | IGROV-1 > 100 µM | UO-31 > 100 µM | SNB-75 42.4 µM | EKVX > 100 µM | OVCAR-5 > 100 µM | ACHN > 100 µM | HCT-116 > 100 µM | RXF 393 93.1 µM | NCI-H226 > 100 µM | SK-OV-3 > 100 µM | M14 > 100 µM

O=c1[nH]c2ccc([N+](=O)[O-])cc2nc1/C(=N/Nc1ccccc1)C(O)c1ccco1 (stereo not given)
inactive: SF-268 71.6 µM | LOX IMVI > 100 µM | SK-MEL-28 > 100 µM | HCC 2998 38.5 µM | COLO 205 38.8 µM | NCI-H522 6.44 µM | IGROV-1 87.9 µM | UO-31 44.2 µM | SNB-75 36.3 µM | EKVX > 100 µM | OVCAR-5 > 100 µM | ACHN 33.9 µM | HCT-116 73.1 µM | RXF 393 52.8 µM | NCI-H226 > 100 µM | SK-OV-3 > 100 µM | M14 > 100 µM

CCOP(=O)(OCC)C1CC(C)OC1=O (stereo not given)
inactive: SF-268 > 100 µM | A498 > 100 µM | LOX IMVI > 100 µM | SK-MEL-28 > 100 µM | HCC 2998 > 100 µM | COLO 205 > 100 µM | IGROV-1 > 100 µM | UO-31 > 100 µM | SNB-75 > 100 µM | EKVX > 100 µM | OVCAR-5 > 100 µM | ACHN > 100 µM | HCT-116 > 100 µM | RXF 393 > 100 µM | SK-OV-3 > 100 µM | M14 > 100 µM

O=C(N/N=C/c1cc(-c2ccccc2Cl)c(-c2ccccc2Cl)o1)c1ccncc1
inactive: SF-268 > 100 µM | A498 > 100 µM | LOX IMVI > 100 µM | SK-MEL-28 > 100 µM | COLO 205 > 100 µM | NCI-H522 83.6 µM | IGROV-1 > 100 µM | SNB-75 81.7 µM | EKVX > 100 µM | OVCAR-5 > 100 µM | ACHN > 100 µM | HCT-116 > 100 µM | RXF 393 > 100 µM | NCI-H226 > 100 µM | SK-OV-3 > 100 µM | M14 > 100 µM

C/C(=N\NC(=O)c1ccncc1)c1cccc(C(F)(F)F)c1
inactive: MCF7 6.9 µM | NCI/ADR-RES > 10 µM | SF-268 > 10 µM | LOX IMVI > 10 µM | SK-MEL-28 > 10 µM | HCC 2998 > 10 µM | COLO 205 > 10 µM | IGROV-1 > 10 µM | UO-31 > 10 µM | SNB-75 > 10 µM | EKVX > 10 µM | NCI-H226 > 10 µM | SK-OV-3 > 10 µM | M14 > 10 µM

CCN(CC)CCSc1nc(-c2c[nH]c3nc(C)ccc3c2=O)n[nH]1
inactive: MCF7 > 100 µM | NCI/ADR-RES > 100 µM | SF-268 > 100 µM | A498 > 100 µM | LOX IMVI > 100 µM | SK-MEL-28 > 100 µM | COLO 205 > 100 µM | NCI-H522 > 100 µM | IGROV-1 > 100 µM | UO-31 > 100 µM | EKVX > 100 µM | OVCAR-5 > 100 µM | ACHN > 100 µM | HCT-116 > 100 µM | RXF 393 > 100 µM | NCI-H226 > 100 µM | M14 > 100 µM

COc1c(C(=O)/C(=N/Nc2ccccc2)C(C)=O)c(O)c(OC)c2occc12
inactive: MCF7 25.4 µM | NCI/ADR-RES 56.5 µM | SF-268 > 100 µM | LOX IMVI 45.9 µM | SK-MEL-28 > 100 µM | HCC 2998 82.4 µM | COLO 205 32.2 µM | NCI-H522 41.8 µM | IGROV-1 67.9 µM | UO-31 17.2 µM | SNB-75 19.8 µM | EKVX 22.2 µM | OVCAR-5 > 100 µM | ACHN 50.4 µM | HCT-116 34 µM | RXF 393 13.7 µM | NCI-H226 52.1 µM | SK-OV-3 65.2 µM | M14 > 100 µM

N=C(N)c1csc([C@@H]2O[C@H](CO)[C@@H](O)[C@H]2O)n1
inactive: SF-268 > 100 µM | LOX IMVI > 100 µM | SK-MEL-28 > 100 µM | HCC 2998 > 100 µM | IGROV-1 > 100 µM | UO-31 > 100 µM | SNB-75 80.9 µM | EKVX > 100 µM | ACHN > 100 µM | HCT-116 > 100 µM | RXF 393 > 100 µM | NCI-H226 89.5 µM | SK-OV-3 > 100 µM | M14 > 100 µM

OCc1cc2ccncc2c2c1[nH]c1ccccc12
inactive: SF-268 4.66 µM | A498 4.5 µM | LOX IMVI 3.44 µM | SK-MEL-28 9.35 µM | HCC 2998 2.44 µM | COLO 205 6.82 µM | IGROV-1 2.73 µM | UO-31 7.53 µM | SNB-75 4.51 µM | EKVX 3.91 µM | OVCAR-5 3.95 µM | ACHN 3.83 µM | HCT-116 3.74 µM | RXF 393 2.96 µM | NCI-H226 2.13 µM | M14 13.2 µM

CC1=NN(C(=O)c2ccccc2)C(=O)C1/N=N/c1ccccc1C(=O)O (stereo not given)
inactive: MCF7 3.86 µM | NCI/ADR-RES 4.76 µM | SF-268 9.79 µM | A498 5.47 µM | LOX IMVI 11.5 µM | SK-MEL-28 89.1 µM | HCC 2998 19.8 µM | COLO 205 > 72.6 µM | NCI-H522 8.05 µM | IGROV-1 4.14 µM | UO-31 3.75 µM | SNB-75 1.8 µM | EKVX > 100 µM | OVCAR-5 > 73.1 µM | HCT-116 3.24 µM | RXF 393 2.47 µM | NCI-H226 9.46 µM | SK-OV-3 > 25.2 µM

N#C/C(=C/NC(=S)c1ccncc1)C(N)=O
inactive: MCF7 > 100 µM | NCI/ADR-RES > 100 µM | SF-268 > 100 µM | A498 > 100 µM | LOX IMVI > 100 µM | SK-MEL-28 > 100 µM | HCC 2998 > 100 µM | COLO 205 > 100 µM | IGROV-1 > 100 µM | UO-31 > 100 µM | SNB-75 > 100 µM | EKVX > 100 µM | OVCAR-5 > 100 µM | ACHN > 100 µM | HCT-116 > 100 µM | RXF 393 > 100 µM | NCI-H226 > 100 µM | SK-OV-3 > 100 µM | M14 > 100 µM

O=S(=O)(/N=C(\NO)Nc1ccc(Cl)cc1)c1ccc(-c2ccccn2)s1
inactive: NCI/ADR-RES 30.9 µM | SF-268 35.7 µM | LOX IMVI 57.8 µM | SK-MEL-28 69.2 µM | COLO 205 45.1 µM | NCI-H522 11.5 µM | IGROV-1 38.5 µM | UO-31 80.2 µM | SNB-75 50.7 µM | EKVX 34.3 µM | OVCAR-5 74.1 µM | ACHN 35.6 µM | HCT-116 38.6 µM | RXF 393 19 µM | NCI-H226 90.8 µM | SK-OV-3 56.1 µM | M14 56.1 µM

O=C1CC2(CCC(O)(c3ccccc3)C(C(=O)c3ccccc3)C2)C(=O)c2ccccc2N1 (stereo not given)
inactive: MCF7 > 100 µM | NCI/ADR-RES > 100 µM | SF-268 > 100 µM | A498 > 100 µM | LOX IMVI > 100 µM | SK-MEL-28 > 100 µM | HCC 2998 > 100 µM | COLO 205 > 100 µM | IGROV-1 > 100 µM | UO-31 > 100 µM | SNB-75 > 100 µM | EKVX > 100 µM | OVCAR-5 > 100 µM | HCT-116 > 100 µM | RXF 393 > 100 µM | NCI-H226 > 100 µM | SK-OV-3 > 100 µM | M14 > 100 µM

Cc1nnc2n1-c1ccccc1N(Cc1ccccc1)CC2
inactive: MCF7 37.4 µM | NCI/ADR-RES 13.8 µM | SF-268 58.9 µM | A498 93.8 µM | LOX IMVI 55.8 µM | SK-MEL-28 > 100 µM | HCC 2998 79.4 µM | COLO 205 38.1 µM | IGROV-1 50.6 µM | UO-31 34.5 µM | SNB-75 52.6 µM | EKVX 34.2 µM | OVCAR-5 > 100 µM | ACHN 49.5 µM | HCT-116 46 µM | RXF 393 34.8 µM | NCI-H226 46.8 µM | SK-OV-3 > 100 µM | M14 63.7 µM
